Source: patent US7790687B2, “Treatment for neurodegeneration” (Proximagen Ltd., priority 2005, dated 2010)
“Also recorded” adds a separate entry of the source.

What was measured:
[1] = tested on: TH positive cells in the rat SN; assay: Intranigral LPS injection, TH immunoreactive cell number in the SN; format: in vivo; conditions: compared to contralateral intact SN and to saline controls, present at 24, 48, 72 and 120 hrs
Procedure: (§1) Male Wistar rats (250-280 g) were obtained from Tuck (Essex, UK) and were kept on a 12 hour light/dark cycle at 21-24° C. with 55-65% humidity with unrestricted access to rat chow and water. All experiments were conducted according to the guidelines set out in the UK Animals (Scientific Procedures) Act 1986 and approved by the King's College London Ethics Committee.
(§2) Animals were randomly divided into 4 groups (n=16 in each group) anaesthetised with halothane (4% in 5%O2:95%CO2), placed in a stereotaxic frame (Kopf Instruments) with the incisor bar set at −3.3 mm and anaesthesia maintained using halothane (1.5-2%). The heads were shaved, scalp cut, skull exposed and a burr hole drilled on the left side of the skull. The following co-ordinates for the SN were used: AP: −4.8 mm, L: +2.0 mm, V: +8.0 mm (Paxinos & Watson, 1986). A 10 μl Hamilton syringe was used and 2 μl of LPS (n=8) (5 mg/ml dissolved in 0.9% sterile saline: E. coli 055:B5; Calbiochem, Nottingham, UK) or 2 μl of vehicle (0.9% sterile saline; n=8) was delivered over a period of 2 minutes. The needle was left in situ for a further 2 minutes before being slowly withdrawn. The wound was closed using Ethicon sutures and the animals allowed to recover from anaesthesia until freely moving before being returned to their home cages. […]

[2] = tested on: OPN immunoreactivity in the rat SN; assay: Intranigral LPS injection, OPN immunoreactivity in the SN; format: in vivo; conditions: compared to saline treated animals
Procedure: as §1, §2

[3] = tested on: TH positive cells in primary ventral mesencephalic cell cultures; assay: MPP+ dose response on TH positive cell number in primary ventral mesencephalic cell cultures; format: cell-based, rat; conditions: 24 hrs MPP+ exposure, 0.1-10 μM, n=3; read-out: EC50, dopaminergic (TH positive) cell death
Procedure: (§3) Primary ventral mesencephalic cell cultures: Primary cell cultures were prepared by dissecting out the ventral mesencephalon from E14 rat foetuses. The dissected tissue was pooled and incubated with 0.1% Trypsin solution. This solution was then removed and replaced with Dulbecco's modified Eagles medium (DMEM) containing 10% foetal bovine serum (FBS) and 0.25% penicillin-streptomycin-neomycin (PSN), and the tissue centrifuged for 1 minute at 200 rpm at room temperature. The supernatant was then removed, fresh medium was added and the tissue mechanically dissociated using increasing fine bore fire-polished Pasteur pipettes. Cell density was assessed using a haematocytometer and cells were plated in culture medium containing 10% FBS and 0.25% PSN at a density of 1-1.5×10^5 on sterile coverslips coated with 0.01 % poly-D-lysine. After 4 days the culture medium was removed and replaced with fresh serum free DMEM prior to treatment with MPP+ or OPN. […]
MPP+ dose response: MPP+ was dissolved in sterile PBS and the primary cell cultures were incubated for 24 hrs with one of the following concentrations of MPP+: 0.1, 0.5, 1, 2, 5, 10 μM MPP+ or vehicle (PBS). […] An EC50 was calculated (3.076±0.56) and a high (10 μM) or low (2 μM) MPP+ concentration was used to investigate the role of OPN in dopaminergic cell survival. […]

[4] = tested on: TH positive cells in primary ventral mesencephalic cultures; assay: Survival of TH positive cells in primary ventral mesencephalic cultures without MPP+ treatment; format: cell-based, rat; conditions: 24 hrs incubation, no MPP+ (no toxin), n=3
Procedure: as §3
(§4) Tyrosine hydroxylase (TH) immunohistochemistry: The culture medium was removed from the cells and the coverslips were fixed in 4% paraformaldehyde prior to peroxidase detection of TH using the ABC immunohistochemical method. Coverslips were mounted and examined using a Zeiss Axiophot microscope at a 50× magnification and the number of TH positive cells on each coverslip was manually counted in four fields chosen at random.(total area: 8 mm^2).

[5] = tested on: TH positive cells in primary ventral mesencephalic cultures; assay: Survival of TH positive cells in primary ventral mesencephalic cultures, pre-treatment followed by MPP+; format: cell-based, rat; conditions: for effect on survival/death of TH positive cells: 24 hrs pre-treatment, n=3; for concentration of maximal efficacy (TH cell survival): lowest concentration used
Procedure: Primary ventral mesencephalic cell cultures: Primary cell cultures were prepared by dissecting out the ventral mesencephalon from E14 rat foetuses. The dissected tissue was pooled and incubated with 0.1% Trypsin solution. This solution was then removed and replaced with Dulbecco's modified Eagles medium (DMEM) containing 10% foetal bovine serum (FBS) and 0.25% penicillin-streptomycin-neomycin (PSN), and the tissue centrifuged for 1 minute at 200 rpm at room temperature. The supernatant was then removed, fresh medium was added and the tissue mechanically dissociated using increasing fine bore fire-polished Pasteur pipettes. Cell density was assessed using a haematocytometer and cells were plated in culture medium containing 10% FBS and 0.25% PSN at a density of 1-1.5×10^5 on sterile coverslips coated with 0.01 % poly-D-lysine. After 4 days the culture medium was removed and replaced with fresh serum free DMEM prior to treatment with MPP+ or OPN. Each treatment was done in triplicate per experiment and each series of experiments was repeated a further 2 times to give a final n=3.
Manipulation of the OPN system: Cultures were incubated with one of the following treatments for 24 hrs prior to MPP+ administration (either 10 μM or 2 μM MPP+): OPN protein (1, 5, 10, 25, 50 & 100 ng/ml), anti-OPN antibody (26.5, 53, 265, 530 ng/ml and 1.325, 2.65 μg/ml), anti-αv or anti-β3 integrin receptor subunit antibody (0.02, 0.04, 0.2, 0.4, 1 & 2 μg/ml). Control groups received no MPP+ treatment.
as §4

lipopolysaccharide [LPS]
decrease in TH positive cells in the LPS injected SN [1]: 70% | increase in OPN immunoreactivity [2]: 14 fold

C[n+]1ccc(-c2ccccc2)cc1 [MPP+]
EC50 [3]: 3.08 ± 0.56 µM

OPN protein fragment: 15 amino acid fragment of rat osteopontin containing the RGD αvβ3 integrin binding site and the α4 and α9 integrin subunit binding sites (TVDVPDGRGDSLAYG; listed as Rattus norvegicus)
effect on viability of TH positive cells [4]: not found to affect the viability; also recorded: no effect | effect on survival/death of TH positive cells ([5]; then 2 μM MPP+ for 24 hrs): almost completely protected dopaminergic cells; also recorded: increased TH cell survival | effect on survival/death of TH positive cells ([5]; then 10 μM MPP+ for 24 hrs): almost completely protected dopaminergic cells; also recorded: increased survival of TH positive cells | concentration of maximal efficacy (TH cell survival) ([5]; then 2 μM MPP+): 1 ng/mL | concentration of maximal efficacy (TH cell survival) ([5]; then 10 μM MPP+): 1 ng/mL
